{"source": "ChEMBL document CHEMBL5393459", "about": "“O-linked thiadiazolyl compounds as dna polymerase theta inhibitors” (2022)", "target": "DNA polymerase theta (Homo sapiens, UniProt O75417)", "sequence (O75417 whole entry, the tested form may be a part)": "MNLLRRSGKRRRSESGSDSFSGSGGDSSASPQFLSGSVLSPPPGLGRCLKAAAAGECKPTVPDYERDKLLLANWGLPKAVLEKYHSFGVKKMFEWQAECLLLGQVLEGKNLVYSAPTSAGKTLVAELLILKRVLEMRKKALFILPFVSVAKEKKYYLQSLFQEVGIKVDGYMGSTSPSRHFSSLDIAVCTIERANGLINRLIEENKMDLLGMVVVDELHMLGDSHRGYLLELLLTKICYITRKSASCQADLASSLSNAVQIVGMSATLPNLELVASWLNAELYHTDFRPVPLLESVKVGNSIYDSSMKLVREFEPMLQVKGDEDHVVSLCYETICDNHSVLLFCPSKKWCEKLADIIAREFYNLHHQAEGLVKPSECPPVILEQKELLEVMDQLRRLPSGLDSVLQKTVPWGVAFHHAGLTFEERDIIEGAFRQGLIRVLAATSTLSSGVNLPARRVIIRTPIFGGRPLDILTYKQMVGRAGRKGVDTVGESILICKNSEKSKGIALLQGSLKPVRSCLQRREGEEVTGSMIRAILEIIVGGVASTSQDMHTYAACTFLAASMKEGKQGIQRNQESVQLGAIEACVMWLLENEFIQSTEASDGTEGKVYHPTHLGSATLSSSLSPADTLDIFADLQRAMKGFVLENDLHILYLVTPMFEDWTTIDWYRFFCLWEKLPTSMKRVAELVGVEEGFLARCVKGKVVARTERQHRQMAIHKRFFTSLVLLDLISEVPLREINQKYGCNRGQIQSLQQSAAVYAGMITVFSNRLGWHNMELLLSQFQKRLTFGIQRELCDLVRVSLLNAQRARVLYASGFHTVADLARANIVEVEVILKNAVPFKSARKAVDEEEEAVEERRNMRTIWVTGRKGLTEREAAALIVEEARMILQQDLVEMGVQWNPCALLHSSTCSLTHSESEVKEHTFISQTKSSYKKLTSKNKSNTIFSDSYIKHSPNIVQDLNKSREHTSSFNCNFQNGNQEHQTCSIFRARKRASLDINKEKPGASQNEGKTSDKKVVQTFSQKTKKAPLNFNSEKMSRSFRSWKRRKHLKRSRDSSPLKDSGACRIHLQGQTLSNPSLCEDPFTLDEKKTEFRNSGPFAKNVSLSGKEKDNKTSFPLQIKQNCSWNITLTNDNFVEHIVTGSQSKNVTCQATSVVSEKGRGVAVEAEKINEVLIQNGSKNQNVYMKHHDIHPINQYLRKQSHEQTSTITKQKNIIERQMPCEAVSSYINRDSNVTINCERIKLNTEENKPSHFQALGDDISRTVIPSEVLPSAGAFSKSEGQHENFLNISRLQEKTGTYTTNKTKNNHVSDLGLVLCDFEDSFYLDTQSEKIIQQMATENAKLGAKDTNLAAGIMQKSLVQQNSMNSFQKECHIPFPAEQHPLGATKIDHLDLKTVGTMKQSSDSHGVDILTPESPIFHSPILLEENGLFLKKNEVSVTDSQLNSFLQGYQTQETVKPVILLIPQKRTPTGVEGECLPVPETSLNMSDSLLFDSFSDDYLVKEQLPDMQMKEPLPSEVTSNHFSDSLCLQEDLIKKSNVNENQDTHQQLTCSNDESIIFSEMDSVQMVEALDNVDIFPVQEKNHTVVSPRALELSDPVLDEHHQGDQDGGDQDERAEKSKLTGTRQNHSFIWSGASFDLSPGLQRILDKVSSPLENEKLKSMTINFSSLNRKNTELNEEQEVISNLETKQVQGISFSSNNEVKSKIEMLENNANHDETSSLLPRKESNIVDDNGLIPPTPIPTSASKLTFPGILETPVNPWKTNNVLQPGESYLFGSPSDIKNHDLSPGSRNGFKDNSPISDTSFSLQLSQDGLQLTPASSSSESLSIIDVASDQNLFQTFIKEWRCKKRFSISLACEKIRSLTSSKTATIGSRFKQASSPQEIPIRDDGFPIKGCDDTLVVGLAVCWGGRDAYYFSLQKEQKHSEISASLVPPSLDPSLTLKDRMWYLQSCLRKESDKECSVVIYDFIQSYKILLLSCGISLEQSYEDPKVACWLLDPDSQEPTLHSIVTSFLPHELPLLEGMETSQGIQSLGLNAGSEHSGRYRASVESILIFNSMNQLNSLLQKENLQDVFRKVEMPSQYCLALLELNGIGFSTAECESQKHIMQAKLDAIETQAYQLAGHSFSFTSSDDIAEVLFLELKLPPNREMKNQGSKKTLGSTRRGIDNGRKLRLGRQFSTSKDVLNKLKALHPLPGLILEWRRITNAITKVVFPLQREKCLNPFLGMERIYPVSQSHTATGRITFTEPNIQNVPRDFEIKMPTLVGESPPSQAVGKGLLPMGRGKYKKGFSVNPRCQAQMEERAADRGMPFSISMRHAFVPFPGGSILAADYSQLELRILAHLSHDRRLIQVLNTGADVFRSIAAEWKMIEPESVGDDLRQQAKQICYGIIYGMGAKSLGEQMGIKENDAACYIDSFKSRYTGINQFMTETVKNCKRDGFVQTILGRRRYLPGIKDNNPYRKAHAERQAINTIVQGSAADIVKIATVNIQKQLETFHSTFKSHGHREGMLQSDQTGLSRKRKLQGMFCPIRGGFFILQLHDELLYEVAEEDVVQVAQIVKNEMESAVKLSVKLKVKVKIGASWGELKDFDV", "test": "Inhibition of human DNA polymerase theta (1 to 899 residues) ATPase activity using dT50 single strand DNA as substrate by NADH oxidation-coupled enzymatic assay"}
{"smiles": "COc1nnc(NC(=O)c2cnc(C)cc2-c2c(OC)ccc3scnc23)s1", "values": [{"measurement": "IC50", "value": "> 10", "unit": "µM"}]}
